{
  "source": "patent US6355799B1",
  "about": "“Substituted benzene compounds, process for their preparation, and herbicidal and defoliant compositions containing them” (ISK Americas Incorporated, priority 1997, dated 2002)",
  "type_in_all_cases": "in vivo",
  "key": {"[1]": {"system": "redroot pigweed (Amaranthus retroflexus, AMARE)", "assay": "Pre-emerge test, greenhouse herbicide activity screening", "details": "pre-emerge, rated 14 days after application, 0 = no damage, 100 = complete death", "method_in_brief": "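Herbicidal damage is scored 0 (none) to 100 (complete plant death) two weeks after a simulated field spray. Rates span 15–1000 g ai/ha, delivered in acetone at 187 l/ha. For post-emergence treatments, plants have 2–3 leaves and the spray carries 0.25% v/v non-ionic surfactant.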"}, "[2]": {"system": "barnyardgrass (Echinochloa crus-galli, ECHCG)", "assay": "Pre-emerge test, greenhouse herbicide activity screening", "details": "pre-emerge, rated 14 days after application, 0 = no damage, 100 = complete death", "method_in_brief": "(§1)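 Applied at 15–1000 g ai/ha from acetone in 187 l/ha spray volume. Post-emergence applications included 0.25% v/v non-ionic surfactant and reached plants sown 8–21 days before. Pre-emergence applications were incorporated by surface watering. Efficacy or crop damage was rated on a 0–100 scale after 14 days.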"}, "[3]": {"system": "green foxtail (Setaria viridis, SETVI)", "assay": "Pre-emerge test, greenhouse herbicide activity screening", "details": "pre-emerge, rated 14 days after application, 0 = no damage, 100 = complete death", "method_in_brief": "as §1"}, "[4]": {"system": "ivyleaf morningglory (Ipomoea hederacea, IPOHE)", "assay": "Pre-emerge test, greenhouse herbicide activity screening", "details": "pre-emerge, rated 14 days after application, 0 = no damage, 100 = complete death", "method_in_brief": "as §1"}, "[5]": {"system": "johnsongrass (Sorghum halepense, SORHA)", "assay": "Pre-emerge test, greenhouse herbicide activity screening", "details": "pre-emerge, rated 14 days after application, 0 = no damage, 100 = complete death", "method_in_brief": "as §1"}, "[6]": {"system": "lambsquarters (Chenopodium album, CHEAL)", "assay": "Pre-emerge test, greenhouse herbicide activity screening", "details": "pre-emerge, rated 14 days after application, 0 = no damage, 100 = complete death", "method_in_brief": "as §1"}, "[7]": {"system": "large crabgrass (Digitaria sanguinalis, DIGSA)", "assay": "Pre-emerge test, greenhouse herbicide activity screening", "details": "pre-emerge, rated 14 days after application, 0 = no damage, 100 = complete death", "method_in_brief": "as §1"}, "[8]": {"system": "sicklepod (Cassia obtusifolia, CASOB)", "assay": "Pre-emerge test, greenhouse herbicide activity screening", "details": "pre-emerge, rated 14 days after application, 0 = no damage, 100 = complete death", "method_in_brief": "as §1"}, "[9]": {"system": "velvetleaf (Abutilon theophrasti, ABUTH)", "assay": "Pre-emerge test, greenhouse herbicide activity screening", "details": "pre-emerge, rated 14 days after application, 0 = no damage, 100 = complete death", "method_in_brief": "as §1"}, "[10]": {"system": "field corn (Zea mays L., var. Dekalb 535, CORN)", "assay": "Pre-emerge test, crop safety", "details": "pre-emerge, rated 14 days after application, 0 = no damage, 100 = complete death", "method_in_brief": "as §1"}, "[11]": {"system": "upland rice (Oryza sp., var. Tebonnet, RICE)", "assay": "Pre-emerge test, crop safety", "details": "pre-emerge, rated 14 days after application, 0 = no damage, 100 = complete death", "method_in_brief": "as §1"}, "[12]": {"system": "barnyardgrass (Echinochloa crus-galli, ECHCG)", "assay": "Post-emerge test, greenhouse herbicide activity screening", "details": "phytotoxicity rating 0-100 (0 no damage, 100 complete death), 14 days after application", "method_in_brief": "(§2)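 Visual ratings on a 0-100 scale (0 no damage, 100 all plants dead) were taken at 14 days after treatment. Rates of 15-1000 g ai/ha in acetone, 187 l/ha, were sprayed onto soil one day after planting (pre-emerge) or onto 2-3 leaf plants with 0.25% v/v surfactant (post-emerge).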"}, "[13]": {"system": "common ragweed (Ambrosia artemisizfolia L., AMBEL)", "assay": "Post-emerge test, greenhouse herbicide activity screening", "details": "250 g ai/ha; phytotoxicity rating 0-100 (0 no damage, 100 complete death), 14 days after application", "method_in_brief": "as §2"}, "[14]": {"system": "green foxtail (Setaria viridis, SETVI)", "assay": "Post-emerge test, greenhouse herbicide activity screening", "details": "phytotoxicity rating 0-100 (0 no damage, 100 complete death), 14 days after application", "method_in_brief": "as §2"}, "[15]": {"system": "ivyleaf morningglory (Ipomoea hederacea, IPOHE)", "assay": "Post-emerge test, greenhouse herbicide activity screening", "details": "phytotoxicity rating 0-100 (0 no damage, 100 complete death), 14 days after application", "method_in_brief": "as §2"}, "[16]": {"system": "johnsongrass (Sorghum halepense, SORHA)", "assay": "Post-emerge test, greenhouse herbicide activity screening", "details": "phytotoxicity rating 0-100 (0 no damage, 100 complete death), 14 days after application", "method_in_brief": "as §2"}, "[17]": {"system": "lambsquarters (Chenopodium album, CHEAL)", "assay": "Post-emerge test, greenhouse herbicide activity screening", "details": "phytotoxicity rating 0-100 (0 no damage, 100 complete death), 14 days after application", "method_in_brief": "as §2"}, "[18]": {"system": "large crabgrass (Digitaria sanguinalis, DIGSA)", "assay": "Post-emerge test, greenhouse herbicide activity screening", "details": "phytotoxicity rating 0-100 (0 no damage, 100 complete death), 14 days after application", "method_in_brief": "as §2"}, "[19]": {"system": "redroot pigweed (Amaranthus retroflexus, AMARE)", "assay": "Post-emerge test, greenhouse herbicide activity screening", "details": "phytotoxicity rating 0-100 (0 no damage, 100 complete death), 14 days after application", "method_in_brief": "as §2"}, "[20]": {"system": "sicklepod (Cassia obtusifolia, CASOB)", "assay": "Post-emerge test, greenhouse herbicide activity screening", "details": "phytotoxicity rating 0-100 (0 no damage, 100 complete death), 14 days after application", "method_in_brief": "as §2"}, "[21]": {"system": "velvetleaf (Abutilon theophrasti, ABUTH)", "assay": "Post-emerge test, greenhouse herbicide activity screening", "details": "phytotoxicity rating 0-100 (0 no damage, 100 complete death), 14 days after application", "method_in_brief": "as §2"}, "[22]": {"system": "field corn (Zea mays L., var. Dekalb 535, CORN)", "assay": "Post-emerge test, crop safety", "details": "phytotoxicity rating 0-100 (0 no damage, 100 complete death), 14 days after application", "method_in_brief": "as §1"}, "[23]": {"system": "upland rice (Oryza sp., var. Tebonnet, RICE)", "assay": "Post-emerge test, crop safety", "details": "phytotoxicity rating 0-100 (0 no damage, 100 complete death), 14 days after application", "method_in_brief": "as §1"}},
  "data": [
    {"smiles": "CCOC(=O)CC(=O)Nc1c(OC(=O)CC(=O)OCC)c(Cl)cc(F)c1-n1c(=O)cc(C(F)(F)F)n(C)c1=O", "note": "[2-16]", "values": [
      {"measurement": "Pre-emerge Herbicidal Activity AMARE (phytotoxicity rating, scale 0-100)", "setting": "[1]; 63 g ai/ha", "result": 50},
      {"measurement": "Pre-emerge Herbicidal Activity AMARE (phytotoxicity rating, scale 0-100)", "setting": "[1]; 250 g ai/ha", "result": 100},
      {"measurement": "Pre-emerge Herbicidal Activity ECHCG (phytotoxicity rating, scale 0-100)", "setting": "[2]; 63 g ai/ha", "result": 0},
      {"measurement": "Pre-emerge Herbicidal Activity ECHCG (phytotoxicity rating, scale 0-100)", "setting": "[2]; 250 g ai/ha", "result": 40},
      {"measurement": "Pre-emerge Herbicidal Activity SETVI (phytotoxicity rating, scale 0-100)", "setting": "[3]; 63 g ai/ha", "result": 0},
      {"measurement": "Pre-emerge Herbicidal Activity SETVI (phytotoxicity rating, scale 0-100)", "setting": "[3]; 250 g ai/ha", "result": 100},
      {"measurement": "Pre-emerge Herbicidal Activity IPOHE (phytotoxicity rating, scale 0-100)", "setting": "[4]; 63 g ai/ha", "result": 0},
      {"measurement": "Pre-emerge Herbicidal Activity IPOHE (phytotoxicity rating, scale 0-100)", "setting": "[4]; 250 g ai/ha", "result": 90},
      {"measurement": "Pre-emerge Herbicidal Activity SORHA (phytotoxicity rating, scale 0-100)", "setting": "[5]; 63 g ai/ha", "result": 0},
      {"measurement": "Pre-emerge Herbicidal Activity SORHA (phytotoxicity rating, scale 0-100)", "setting": "[5]; 250 g ai/ha", "result": 80},
      {"measurement": "Pre-emerge Herbicidal Activity CHEAL (phytotoxicity rating, scale 0-100)", "setting": "[6]; 63 g ai/ha", "result": 95},
      {"measurement": "Pre-emerge Herbicidal Activity CHEAL (phytotoxicity rating, scale 0-100)", "setting": "[6]; 250 g ai/ha", "result": 100},
      {"measurement": "Pre-emerge Herbicidal Activity DIGSA (phytotoxicity rating, scale 0-100)", "setting": "[7]; 63 g ai/ha", "result": 0},
      {"measurement": "Pre-emerge Herbicidal Activity DIGSA (phytotoxicity rating, scale 0-100)", "setting": "[7]; 250 g ai/ha", "result": 100},
      {"measurement": "Pre-emerge Herbicidal Activity CASOB (phytotoxicity rating, scale 0-100)", "setting": "[8]; 63 g ai/ha", "result": 0},
      {"measurement": "Pre-emerge Herbicidal Activity CASOB (phytotoxicity rating, scale 0-100)", "setting": "[8]; 250 g ai/ha", "result": 100},
      {"measurement": "Pre-emerge Herbicidal Activity ABUTH (phytotoxicity rating, scale 0-100)", "setting": "[9]; 63 g ai/ha", "result": 80},
      {"measurement": "Pre-emerge Herbicidal Activity ABUTH (phytotoxicity rating, scale 0-100)", "setting": "[9]; 250 g ai/ha", "result": 100},
      {"measurement": "Pre-emerge crop damage CORN (phytotoxicity rating, scale 0-100)", "setting": "[10]; 63 g ai/ha", "result": 0},
      {"measurement": "Pre-emerge crop damage CORN (phytotoxicity rating, scale 0-100)", "setting": "[10]; 250 g ai/ha", "result": 20},
      {"measurement": "Pre-emerge crop damage RICE (phytotoxicity rating, scale 0-100)", "setting": "[11]; 63 g ai/ha", "result": 0},
      {"measurement": "Pre-emerge crop damage RICE (phytotoxicity rating, scale 0-100)", "setting": "[11]; 250 g ai/ha", "result": 15},
      {"measurement": "Post-emerge Herbicidal Activity ECHCG", "setting": "[12]; 63 g ai/ha", "result": 90},
      {"measurement": "Post-emerge Herbicidal Activity ECHCG", "setting": "[12]; 250 g ai/ha", "result": 100},
      {"measurement": "Post-emerge Herbicidal Activity AMBEL", "setting": "[13]", "result": 100},
      {"measurement": "Post-emerge Herbicidal Activity SETVI", "setting": "[14]; 63 g ai/ha", "result": 50},
      {"measurement": "Post-emerge Herbicidal Activity SETVI", "setting": "[14]; 250 g ai/ha", "result": 100},
      {"measurement": "Post-emerge Herbicidal Activity IPOHE", "setting": "[15]; 63 g ai/ha", "result": 99},
      {"measurement": "Post-emerge Herbicidal Activity IPOHE", "setting": "[15]; 250 g ai/ha", "result": 100},
      {"measurement": "Post-emerge Herbicidal Activity SORHA", "setting": "[16]; 63 g ai/ha", "result": 40},
      {"measurement": "Post-emerge Herbicidal Activity SORHA", "setting": "[16]; 250 g ai/ha", "result": 95},
      {"measurement": "Post-emerge Herbicidal Activity CHEAL", "setting": "[17]; 63 g ai/ha", "result": 80},
      {"measurement": "Post-emerge Herbicidal Activity CHEAL", "setting": "[17]; 250 g ai/ha", "result": 100},
      {"measurement": "Post-emerge Herbicidal Activity DIGSA", "setting": "[18]; 63 g ai/ha", "result": 20},
      {"measurement": "Post-emerge Herbicidal Activity DIGSA", "setting": "[18]; 250 g ai/ha", "result": 60},
      {"measurement": "Post-emerge Herbicidal Activity AMARE", "setting": "[19]; 63 g ai/ha", "result": 50},
      {"measurement": "Post-emerge Herbicidal Activity AMARE", "setting": "[19]; 250 g ai/ha", "result": 100},
      {"measurement": "Post-emerge Herbicidal Activity CASOB", "setting": "[20]; 63 g ai/ha", "result": 10},
      {"measurement": "Post-emerge Herbicidal Activity CASOB", "setting": "[20]; 250 g ai/ha", "result": 80},
      {"measurement": "Post-emerge Herbicidal Activity ABUTH", "setting": "[21]; 63 g ai/ha", "result": 100},
      {"measurement": "Post-emerge Herbicidal Activity ABUTH", "setting": "[21]; 250 g ai/ha", "result": 100},
      {"measurement": "Post-emerge Herbicidal Activity CORN (crop damage)", "setting": "[22]; 63 g ai/ha", "result": 70},
      {"measurement": "Post-emerge Herbicidal Activity CORN (crop damage)", "setting": "[22]; 250 g ai/ha", "result": 90},
      {"measurement": "Post-emerge Herbicidal Activity RICE (crop damage)", "setting": "[23]; 63 g ai/ha", "result": 40},
      {"measurement": "Post-emerge Herbicidal Activity RICE (crop damage)", "setting": "[23]; 250 g ai/ha", "result": 45}
    ]}
  ]
}
